Patent US8507559B2, “Cyclohexenyl modulators of chemokine receptor activity” (Bristol-Myers Squibb Company, priority 2008, dated 2013)

Target: T1, CCR2 (Homo sapiens, UniProt P41597)
T1 construct: THP-1 human monocytic leukemic cell line, which expresses endogenous CCR2; endogenous in cells; host or cells: human peripheral blood mononuclear cells, human monocytes or THP-1 cells
T1 sequence (P41597 1-360 isoform P41597-2): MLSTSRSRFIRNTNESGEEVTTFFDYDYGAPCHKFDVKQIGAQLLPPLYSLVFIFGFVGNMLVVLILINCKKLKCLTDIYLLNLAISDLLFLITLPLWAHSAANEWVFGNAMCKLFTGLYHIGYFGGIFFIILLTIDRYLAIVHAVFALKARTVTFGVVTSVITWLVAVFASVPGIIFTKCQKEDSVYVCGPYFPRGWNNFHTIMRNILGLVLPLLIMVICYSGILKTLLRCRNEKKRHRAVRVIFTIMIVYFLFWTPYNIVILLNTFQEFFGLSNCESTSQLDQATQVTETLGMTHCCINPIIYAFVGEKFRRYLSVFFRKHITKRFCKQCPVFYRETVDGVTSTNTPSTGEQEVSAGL
Test: CCR2 binding: antagonism of 125I-MCP-1 binding (human PBMC / THP-1 whole cell)
Details: n = 1 unless otherwise noted
Experimental: Antagonism of MCP-1 Binding to Human PBMC
Millipore filter plates (#MABVN1250) are treated with 100 μl of binding buffer (0.5% bovine serum albumin, 20 mM HEPES buffer and 5 mM magnesium chloride in RPMI 1640 media) for thirty minutes at room temperature. To measure binding, 50 μl of binding buffer, with or without a known concentration compound, is combined with 50 μl of ^125-I labeled human MCP-1 (to give a final concentration of 150 pM radioligand) and 50 μl of binding buffer containing 5×10^5 cells. Cells used for such binding assays can include human peripheral blood mononuclear cells isolated by Ficoll-Hypaque gradient centrifugation, human monocytes (Weiner et al., J. Immunol. Methods. 1980, 36, 89), or the THP-1 cell line which expresses the endogenous receptor. The mixture of compound, cells and radioligand are incubated at room temperature for thirty minutes. Plates are placed onto a vacuum manifold, vacuum applied, and the plates washed three times with binding buffer containing 0.5M NaCl. The plastic skirt is removed from the plate, the plate allowed to air dry, the wells punched out and counted. The percent inhibition of binding is calculated using the total counts obtained in the absence of any competing compound and the background binding determined by addition of 100 nM MCP-1 in place of the test compound.
THP-1 Monocytic Cell Binding: Whole Cell-based Assay
The human CCR2 binding assay was also established with the THP-1 human monocytic leukemic cell line, which expresses endogenous CCR2, using ^125I-human MCP-1 as the tracer ligand. Radioligand competition binding assays were used for assessment of binding affinity of test compounds to the CCR2 receptor. For radioligand competition studies, 100 μl containing 2.5×10^5 THP-1 cells/well (in assay buffer containing 50 mM HEPES, pH7.4, 5 mM MgCl2, 1 mM CaCl2 and 0.5% BSA) were added to 96-well assay plates containing the test compounds in 3-fold serial dilution, with final concentrations ranging from 5 μM to 100 pM. Subsequently, 50 μl ^125I-MCP-1 radioligand at a final concentration of 0.2 nM in assay buffer were added to the reaction. After a 90 minute incubation period at room temperature, the binding reaction was terminated by harvesting on GF/B filter plates (PerkinElmer Cat. No. 6005177) followed by washing with ice-cold wash buffer (50 mM HEPES, pH 7.4, 0.1% BSA, 0.5 M NaCl) to remove unbound ligand. After washing, the plate was dried for 45 minutes at 60° C. followed by addition of 40 μl MicroScint 20 scintillation fluid, sealed and analyzed by the Packard TopCount reader. Non-specific binding was determined in the presence of 10 μM (a molar excess of 5000 fold) of an in-house CCR2 small molecule antagonist (CCR2 IC50=2 nM). Specific binding of ^125I-MCP-1 was calculated as the difference between total and non-specific binding. The competition data was plotted as a percentage inhibition of radioligand specific bound in the absence of test compound (percent of total signal). After correcting for non-specific binding, IC50 values were determined. The IC50 is defined as the concentration of test compound required to reduce ^125I-MCP-1 specific binding by 50% and was calculated using the four parameter logistic equation to fit the normalized data.

| Structure (SMILES) | Ki [nM] |
| --- | --- |
| C[C@@H]1CC=C(C(=O)O)[C@@](C)(c2ccc(F)cc2)C1 (racemic) [Example 1-22, (4RS,6RS)-6-(4-fluorophenyl)-4,6-dimethylcyclohex-1-enecarboxylic acid] | 480 |
| C[C@@H]1CC=C(C(=O)O)[C@@](C)(c2cc(C(F)(F)F)cc(C(F)(F)F)c2)C1 (racemic) [Example 1-14, (4RS,6RS)-6-(3,5-bis(trifluoromethyl)-phenyl)-4,6-dimethylcyclohex-1-enecarboxylic acid] | 740 |
| Cc1ccc([C@@]2(C)C[C@H](C)CC=C2C(=O)O)cc1 (racemic) [Example 1-17, (4RS,6RS)-4,6-dimethyl-6-p-tolylcyclohex-1-enecarboxylic acid] | 2600 |
| CC(C)(C)OC[C@@H]1CC=C(C(=O)O)[C@@](C)(c2ccc(Cl)c(C(F)(F)F)c2)C1 (racemic) [Example 10, (4RS,6RS)-4-(tert-butoxymethyl)-6-(4-chloro-3-(trifluoromethyl)phenyl)-6-methylcyclohex-1-enecarboxylic acid] | 6200 |
| Cc1cc([C@@]2(C)C[C@H](C)CC=C2C(=O)O)ccc1F (racemic) [Example 1-25, (4RS,6RS)-6-(4-fluoro-3-methylphenyl)-4,6-dimethylcyclohex-1-enecarboxylic acid] | 1100 |
| C[C@@H]1CC=C(C(=O)O)[C@@](C)(c2cccc(-c3ccccc3)c2)C1 (racemic) [Example 1-03, (4RS,6RS)-6-(3-phenylphenyl)-4,6-dimethylcyclohex-1-enecarboxylic acid] | 250 |
| CC1=C(C(=O)O)[C@@](C)(c2ccc(Cl)c(Cl)c2)C[C@H](C)C1 (racemic) [Example 6, (4RS,6RS)-6-(3,4-dichlorophenyl)-2,4,6-trimethylcyclohex-1-enecarboxylic acid] | 580 |
| Cc1cc([C@@]2(C)C[C@H](C)CC=C2C(=O)O)cc(C)c1Cl (racemic) [Example 1-27, (4RS,6RS)-6-(4-chloro-3,5-dimethylphenyl)-4,6-dimethylcyclohex-1-enecarboxylic acid] | 130 |
| C[C@@H]1CC=C(C(=O)O)[C@@](C)(c2ccc(Cl)c(Cl)c2)C1 (racemic) [Example 1-11, (4RS,6RS)-6-(3,4-dichlorophenyl)-4,6-dimethylcyclohex-1-enecarboxylic acid] | 80 |
| C[C@@H]1CC=C(C(=O)O)[C@@](C)(c2ccc(Cl)cc2)C1 (racemic) [Example 1-21, (4RS,6RS)-6-(4-chlorophenyl)-4,6-dimethylcyclohex-1-enecarboxylic acid] | 900 |
| C[C@@H]1CC=C(C(=O)O)[C@@](C)(c2cccc3ccccc23)C1 (racemic) [Example 1-16, (4RS,6RS)-4,6-dimethyl-6-(napthalen-1-yl)cyclohex-1-enecarboxylic acid] | 140 |
| C[C@H]1CC=C(C(=O)O)[C@](C)(c2ccc(Cl)c(Cl)c2)C1 [Example 4-02a, (45,65)-6-(3,4-dichlorophenyl)-4,6-dimethylcyclohex-1-enecarboxylic acid] | 36 |
| Cc1ccc(C)c([C@@]2(C)C[C@H](C)CC=C2C(=O)O)c1 (racemic) [Example 1-26, (4RS,6RS)-6-(2,5-dimethylphenyl)-4,6-dimethylcyclohex-1-enecarboxylic acid] | 550 |
| CC1(c2cccc(Cl)c2)CCCC=C1C(=O)O (racemic) [Example 1-09, 6-(3-chlorophenyl)-6-methylcyclohex-1-enecarboxylic acid] | 3000 |
| CC1(c2cccc(C(F)(F)F)c2)CCCC=C1C(=O)O (racemic) [Example 1-10, 6-methyl-6-(3-(trifluoromethyl)-phenyl)cyclohex-1-enecarboxylic acid] | 1600 |
| C[C@]1(c2ccc(Cl)c(C(F)(F)F)c2)C[C@H](OCc2ccccc2)CC=C1C(=O)O (racemic) [Example 12, (4RS,6RS)-4-(benzyloxy)-6-(4-chloro-3-(trifluoromethyl)phenyl)-6-methylcyclohex-1-enecarboxylic acid] | 2500 |
| C[C@@H]1CC=C(C(=O)O)[C@@](C)(c2ccc(F)c(F)c2)C1 (racemic) [Example 1-05, (4RS,6RS)-6-(3,4-difluorophenyl)-4,6-dimethylcyclohex-1-enecarboxylic acid] | 3500 |
| C[C@@H]1CC=C(C(=O)O)[C@@](C)(c2cccc(F)c2)C1 (racemic) [Example 1-23, (4RS,6RS)-6-(3-fluorophenyl)-4,6-dimethylcyclohex-1-enecarboxylic acid] | 3700 |
| C[C@]1(c2ccc(Cl)c(C(F)(F)F)c2)C[C@H](CO)CC=C1C(=O)O (racemic) [Example 7, (4RS,6RS)-6-(4-chloro-3-(trifluoromethyl)-phenyl)-4-(hydroxymethyl)-6-methylcyclohex-1-enecarboxylic acid] | 210 |
| C[C@@H]1CC=C(C(=O)NS(=O)(=O)c2ccccc2)[C@@](C)(c2ccc(Cl)c(Cl)c2)C1 (racemic) [Example 3-03, (4RS,6RS)-6-(3,4-dichlorophenyl)-4,6-dimethyl-N-(phenylsulfonyl)cyclohex-1-enecarboxamide] | 150 |
| C[C@@H]1CC=C(C(=O)NS(=O)(=O)C(F)(F)F)[C@@](C)(c2ccc(Cl)c(Cl)c2)C1 (racemic) [Example 3-02, (4RS,6RS)-6-(3,4-dichlorophenyl)-4,6-dimethyl-N-(trifluoromethylsulfonyl)-cyclohex-1-enecarboxamide] | 6600 |
| C[C@H]1CC=C(C(=O)O)[C@](C)(c2ccc(Cl)c(C(F)(F)F)c2)C1 [Example 4-01a, (4S,6S)-6-(4-chloro-3-(trifluoromethyl)-phenyl)-4,6-dimethylcyclohex-1-enecarboxylic acid] | 9 |
| Cc1ccc([C@@]2(C)C[C@H](C)CC=C2C(=O)O)c2ccccc12 (racemic) [Example 1-28, (4RS,6RS)-4,6-dimethyl-6-(4-methyl-naphthalen-1-yl)cyclohex-1-enecarboxylic acid] | 250 |
| C[C@@H]1CC=C(C(=O)NS(C)(=O)=O)[C@@](C)(c2ccc(Cl)c(Cl)c2)C1 (racemic) [Example 3-01, (4RS,6RS)-6-(3,4-dichlorophenyl)-4,6-dimethyl-N-(methylsulfonyl)cyclohex-1-enecarboxamide] | 5400 |
| CC1(c2ccc(Cl)cc2)CCCC=C1C(=O)O (racemic) [Example 1-02, 6-(4-chlorophenyl)-6-methylcyclohex-1-enecarboxylic acid] | 3400 |
| C[C@@H]1CC=C(C(=O)O)[C@@](C)(c2ccc(Cl)c(C(F)(F)F)c2)C1 [Example 4-01b, (4R,6R)-6-(4-chloro-3-(trifluoromethyl)phenyl)-4,6-dimethylcyclohex-1-enecarboxylic acid] | 4500 |
| Cc1ccc([C@@]2(C)C[C@H](C)CC=C2C(=O)O)cc1C (racemic) [Example 1-15, (4RS,6RS)-6-(3,4-dimethylphenyl)-4,6-dimethylcyclohex-1-enecarboxylic acid] | 330 |
| Cc1ccc(C2(C)CCCC=C2C(=O)O)cc1C (racemic) [Example 1-08, 6-(3,4-dimethylphenyl)-6-methylcyclohex-1-enecarboxylic acid] | 8200 |
| COc1ccccc1C1(C)CCCC=C1C(=O)O (centres unmarked) [Example 1-07, 6-(2-methoxyphenyl)-6-methyl methylcyclohex-1-enecarboxylic acid] | 10000 |
